Results on two molecules are retold here after patent US20230381774A1, “MICROFLUDIC LAB-ON-CHIP DEVICE, MATRIX, SMALL MOLECULES AND THREE-DIMENSIONAL SPHEROIDS FOR CELL REPROGRAMMING” (The Regents of the University of California, priority 2022, published 2023).

Entries after “also recorded” stand apart in the source; their conditions may differ.

Holding throughout (assay type): cell-based, mouse
The subject of assay [1] is H3K4-specific histone methyltransferase (HMT). Description: H3K4 HMT activity assay on nuclear extracts of treated fibroblasts. The settings on record: 10 μM blebbistatin or 5 μM PF573228, 2 hours, vs DMSO. The protocol: (§1) Nuclear protein extractions were isolated from 5×10^5 fibroblasts treated with vehicle control (DMSO), 10 μM blebbistatin or 5 μM PF573228 for 2 hours using a nuclear extraction kit (EpiGentek, OP-0002), in accordance with the manufacturer's instructions. HAT, HDAC, H3K4 HMT, H3K4 HDM and DNMT activity were measured using the HAT activity/inhibition assay (EpiGentek, P-4003-048), HDAC activity/inhibition assay (EpiGentek, P-4034-096), Histone methyltransferase (H3K4 specific) activity/inhibition assay (EpiGentek, P-3002-1), Histone Demethylase (H3K4 specific) activity/inhibition assay (EpiGentek, P-3074-48), and DNMT activity/inhibition assay (EpiGentek, P-3009-048), respectively. Per the manufacturer's instructions, 20 μg of nuclear extract was added into the assay wells and incubated at 37° C. for 90 minutes. After adding the color developer solution, the absorbance was measured using a plate reader (Infinite […], 30050303) at 450 nm for all the assays with the exception of the Histone Demethylase (H3K4 specific) activity/inhibition assay where we measured the fluorescence using a fluorescence microplate reader at 530 EX/590 EM nm.

The subject of assay [2] is histone deacetylase (HDAC). The assay is described as follows: HDAC activity assay on nuclear extracts of treated fibroblasts. The settings on record: 10 μM blebbistatin or 5 μM PF573228, 2 hours, vs DMSO. The protocol: as §1
Assay [3] deals with BAM-transduced fibroblasts. The assay is described as follows: iN reprogramming of BAM-transduced fibroblasts with cytoskeletal and adhesion inhibitors (TUBB3+ iN cells, 2 weeks). The note with it: for dose response of reprogramming efficiency: varying concentrations. The protocol:
To examine whether these changes in cell stiffness, actin structure and expression of contractility-mediating genes were involved in iN reprogramming, we evaluated the effects of disrupting the cytoskeleton using small molecule inhibitors. For these experiments, BAM-transduced fibroblasts were reprogrammed as in FIG. 1A and chemical compounds known to perturb the cytoskeleton were added to the culture medium on day 1 to evaluate their effects on the reprogramming process. […] The reprogramming efficiency was determined as the percentage of TUBB3*-iN cells normalized to the number of cells plated at 24 hours post-seeding (i.e., day 0). First, we tested whether disruption of cytoskeletal contractility could influence the direct reprogramming of fibroblasts into neurons using blebbistatin, a non-muscle myosin II inhibitor^22-24. We observed that iN cells could be derived in the absence and presence of blebbistatin (FIG. 3A). […] In particular, treatment with 10 μM blebbistatin generated the highest number of iN cells and increased the reprogramming efficiency by approximately 4.5-fold compared to the control, therefore, this concentration was used in all subsequent experiments. […] As Ascl1 has been identified as a pioneer factor for iN reprogramming and transduction of Ascl1 alone is sufficient to generate iN cells^25,26, we further investigated whether blebbistatin could influence iN conversion by Ascl1 induction.
After transduction, mouse fibroblasts were seeded onto multi-well tissue culture-treated polystyrene dishes (Falcon) coated with laminin (0.1 mg/ml, Corning) at 4,000 cells per cm^2. Twenty-four hours after seeding, the medium was replaced to MEF medium containing doxycycline (2 μg/ml, Sigma). The following day (i.e., day 1) the medium was changed to N3 medium (DMEM/F12 [GIBCO]+N2 supplement [Invitrogen]+B27 supplement [Invitrogen]+1% penicillin/streptomycin [Gibco]+ doxycycline [2 μg/ml, Sigma]) and the cultures were maintained in this medium for the duration of the experiments. For Ascl1-only reprogramming, N3 medium was further supplemented with BDNF (5 ng/ml, R&D systems) and GDNF (5 ng/ml, R&D systems) after day 7. For cytoskeletal and cell adhesion disruptions, Blebbistatin (Millipore), Y-27632 (20 μM; Cayman Chemical), Nocodazole (0.3 μM; Sigma), Cytochalasin D (1 μM; Sigma), Jasplakinolide (0.05 μM; Cayman Chemical) and PF573228 (Sigma) were administered in N3 medium on day 1 and for the first 7 days of reprogramming (unless stated otherwise) and used at the indicated concentrations. Culture medium was replenished every 2 days during reprogramming to maintain the activity of the small molecules. After culturing for the desired length (14 days for BAM and 21 days for Ascl1 only), the induced neuronal (iN) cells were analyzed and the reprogramming efficiency was determined.
The reprogramming efficiency was determined by as the percentage of TUBB3^+ iN cells in each condition normalized to the number of cells plated at 24 hours post-seeding. Epifluorescence images were collected using a Zeiss Axio Observer.D1, Zeiss Axio Observer.Z1, and ImageXpress Micro XLS System (Molecular Devices), whereas confocal images were acquired using a Zeiss LSM710 microscope and Leica SP8 Confocal Laser Scanning microscope.

Assay [4] concerns DNA methyltransferase (DNMT). The assay is described as follows: DNMT activity assay on nuclear extracts of treated fibroblasts. The settings on record: 10 μM blebbistatin or 5 μM PF573228, 2 hours, vs DMSO. How it is done: as §1
A further assay concerns calponin and αSMA. Description: Mesenchymal marker expression (immunostaining, qRT-PCR, Western blot). The protocol: For immunostaining, cells were fixed with 4% paraformaldehyde (Electron Microscopy Sciences), permeabilized with 0.5% Triton-X-100 (Sigma), and blocked with 5% donkey serum (Jackson Immunoresearch) in phosphate buffered saline (PBS). For actin-cytoskeleton staining, samples were incubated with fluorescein isothiocyanate-conjugated phalloidin (Invitrogen) for 1 hour. Primary antibodies were incubated for 1 hour at room temperature or overnight at 4° C., followed by 1-hour incubation with Alexa 488 and/or Alexa 546-labeled secondary antibodies (Molecular Probes). Nuclei were stained with 4,6-diamino-2-phenylindole (DAPI) (Invitrogen).
RNA was isolated from samples using Trizol® (Ambion) according to the manufacturer's instructions. For cDNA synthesis, 500 ng of RNA was reverse transcribed using Maxima First Strand cDNA Synthesis Kit (ThermoFisher Scientific). Template DNA was amplified using Maxima SYBR Green/Fluorescein qPCR Master Mix (ThermoFisher Scientific) on a CFX qPCR machine (Bio-Rad). qRT-PCR data were analyzed using CFX Manager 3.1 (Bio-Rad) and gene expression levels were normalized to 18S.
Fibroblasts were lysed and collected in Laemmli buffer ([…] Tris-HCl, 10% glycerol, 2% SDS, 5% 2-mercaptoethanol, 0.002% bromophenol blue) containing RIPA buffer (50 mM Tris-HCl, 150 mM NaCl, 1% Triton-X-100, 0.1% SDS, 10 mM NaF, 0.5% sodium deoxycholate) along with protease inhibitors (PMSF, Na3VO4 and Leupeptin) on ice. Protein lysates were centrifuged to pellet cell debris, and the supernatant was collected and used in further analysis. Protein samples were run using SDS-PAGE and transferred to polyvinylidene fluoride (PVDF) membranes. Membranes were blocked in 3% nonfat milk and incubated with primary antibodies overnight. Primary antibodies include pFAK, FAK, αSMA, Calponin, pERK, ERK, and GAPDH. Membranes were washed with Tris-Buffered Saline+0.05% Tween-20 and incubated with HRP-conjugated IgG secondary antibodies (Santa Cruz Biotechnologies) for one hour. Protein bands were visualized using Western Lightning™ Plus—Enhanced Chemiluminscence Substrate (Perkin Elmer Life & Analytical Sciences) and imaged on a ChemiDoc XRS system (Bio-Rad).
Background: Real-time PCR tracks product formation cycle by cycle.

Consider `CS(=O)(=O)c1cccc(CNc2nc(Nc3ccc4c(c3)CCC(=O)N4)ncc2C(F)(F)F)c1` [PF573228], for which, in assay [1], the “H3K4-specific HMT activity” value is given as “differences”. In addition, the HDAC activity entry in assay [2] is given as “differences”. Further, the “dose response of reprogramming efficiency” value in assay [3] is “significantly increased the reprogramming efficiency in a biphasic manner; also recorded: promoted iN reprogramming in a biphasic manner”. Also, the DNMT activity result in assay [4] is “a reduction in 5-mC marks and DNMT activity”. The “calponin and αSMA expression in BAM-transduced fibroblasts” value in the assay with calponin and αSMA (treated for 2 days) is given as “decreased”.

In the case of `Cc1ccc2c(c1)C(=O)C1(O)CCN(c3ccccc3)C1=N2` (centres unmarked) [blebbistatin], in assay [1], the “H3K4-specific HMT activity” value is “increased”. In addition, the HDAC activity result in assay [2] was “reducing”. Further, in assay [3], the “concentration generating the highest number of iN cells” value is 10 µM and the “dose response of reprogramming efficiency” value was “biphasic dose response”. Moreover, the “time course of TUBB3+ iN cell generation” value in assay [3] (as early as day 5) is “led to more efficient generation of TUBB3^+ iN cells than the control”. In assay [3] (early days 1-5, mid days 5-9, late days 9-13, 10 μM), the “phase of reprogramming in which treatment is effective” value is given as “most crucial during the early phase of reprogramming”. In addition, in assay [3] (mouse fibroblasts isolated from Tau-EGFP mice), the “reprogramming efficiency in Tau-EGFP fibroblasts” value was “enhanced reprogramming efficiency by blebbistatin was also confirmed”. For the same molecule, the “length of treatment sufficient to enhance reprogramming efficiency” value in assay [3] (treatment over timescales of 1 to 14 days) came out at 3 days. Moreover, in assay [4], the DNMT activity result is listed as “a decrease in DNA methyltransferase (DNMT) activity”. Besides, the “calponin- and αSMA-positive cells” value with calponin and αSMA (non-transduced fibroblasts) was “less calponin and α-smooth muscle actin (SMA)-positive cells”. In the assay on calponin and αSMA (non-transduced fibroblasts, day 3), the “calponin and αSMA expression, gene and protein level” value was “decreased at the gene and protein level by day 3”. The “Eln and DCN expression” value in the assay with calponin and αSMA (qRT-PCR, non- and BAM-transduced fibroblasts) is “downregulated the expression of other mesenchymal and fibroblast-associated genes, Eln and DCN”.
